# Patent USRE47689E1, “Compounds for treating spinal muscular atrophy” (PTC Therapeutics, Inc., priority 2011, dated 2019)
# Structures can show the parent of a compound that is named as a salt.
# Experiments:
# [1] = test system: SMN2 minigene (full length SMN2 minigene mRNA containing SMN2 exon 7); assay: SMN2 minigene mRNA splicing RT-qPCR assay in cultured cells; assay type: cell-based, human; conditions: HEK293H cells stably transfected with SMN2-A minigene, 24 hours, 7-point concentration curve, 1.5-fold relative to vehicle-treated cells; for EC (1.5-fold): Homo sapiens, HEK293-H, read-out: EC1.5x for production of full length SMN2 mRNA
# Experimental: The reverse transcription-quantitative PCR-based (RT-qPCR) assay is used to quantify the level of the full length SMN2 minigene mRNA containing SMN2 exon 7 in a HEK293H cell line stably transfected with said minigene and treated with a test compound.
# Protocol. HEK293H cells stably transfected with the SMN2-A minigene construct described above (10,000 cells/well) are seeded in 200 μL of cell culture medium (DMEM plus 10% FBS, with 200 μg/mL hygromycin) in 96-well flat-bottom plates and the plate is immediately swirled to ensure proper dispersal of cells, forming an even monolayer of cells. Cells are allowed to attach for at least 4-6 hours. […] A solution of test compound (1 μL, 200× in DMSO) is added to each cell-containing well and the plate is incubated for 24 hours in a cell culture incubator (37° C., 5% CO2, 100% relative humidity). 2 replicates are prepared for each test compound concentration. The cells are then lysed in Cells-To-Ct lysis buffer and the lysate is stored at −80° C.
# The combination of these three oligonucleotides detects only SMN1 or SMN2 minigenes (RT-qPCR) and will not detect endogenous SMN1 or SMN2 genes.
# The SMN forward and reverse primers are used at final concentrations of 0.4 μM.
# The SMN2-minigene GAPDH mix (15 μL total volume) is prepared by combining 7.5 μL of 2×RT-PCR buffer, 0.4 μL of 25×RT-PCR enzyme mix, 0.75 μL of 20×GAPDH primer-probe mix, 4.0075 μL of water, 2 μL of 10-fold diluted cell lysate, 0.06 μL of 100 μM SMN forward primer, 0.06 μL of 100 μM SMN reverse primer, and 0.225 μL of 100 μM SMN probe.
# PCR is carried out at the following temperatures for the indicated time: Step 1: 48° C. (15 min); Step 2: 95° C. (10 min); Step 3: 95° C. (15 sec); Step 4: 60° C. (1 min); then repeat Steps 3 and 4 for a total of 40 cycles.
# Each reaction mixture contains both SMN2-A minigene and GAPDH primers/probe sets (multiplex design), allowing simultaneous measurement of the levels of two transcripts.
# Two SMN spliced products are generated from the SMN2 minigene. The first spliced product containing exon 7, corresponding to full length SMN2 mRNA, is called SMN2mini FL. The second one lacking exon 7 is called SMN2mini Δ7.
# The amplification efficiency E is calculated from the slope of the amplification curve for SMN2mini FL and GAPDH individually. The abundances of SMN2mini FL and GAPDH are then calculated as […], where Ct is the threshold value for each amplicon. The abundance of SMN2mini FL is normalized to GAPDH abundance. The normalized SMN2mini FL abundance from test compound-treated samples is then divided by normalized SMN2mini FL abundance from vehicle-treated cells to determine the level of SMN2 FL mRNA relative to vehicle control.
# An EC1.5x for production of full length SMN2 mRNA between >3 μM and ≤30 μM is indicated by one star (*), an EC1.5x between >1 μM and ≤3 μM is indicated by two stars (**), an EC1.5x between >0.3 μM and ≤1 μM is indicated by three stars (***), an EC1.5x between >0.1 μM and ≤0.3 μM is indicated by four stars (****) and an EC1.5x≤0.1 μM is indicated by five stars (*****).
# Smn protein = Smn protein assay in cultured cells (SMN HTRF); assay type: cell-based, human; conditions: SMA patient fibroblast cells, 48 hours, 7-point concentration data, fold increase relative to vehicle control (SMN HTRF)
# Experimental: The SMN HTRF (homogeneous time resolved fluorescence) assay is used to quantify the level of Smn protein in SMA patient fibroblast cells treated with test compounds.
# Protocol. Cells are thawed and cultured in DMEM-10% FBS for 72 hours. Cells are trypsinized, counted and resuspended to a concentration of 25,000 cells/mL in DMEM-10% FBS. […] 1 μL of test compound solution is transferred to cell-containing wells and cells are incubated for 48 hours in a cell culture incubator (37° C., 5% CO2, 100% relative humidity). Triplicate samples are set up for each test compound concentration. After 48 hours, the supernatant is removed from the wells and 25 μL of the RIPA lysis buffer, containing protease inhibitors, is added to the wells and incubated with shaking at room temperature for 1 hour. 25 μL of the diluent is added and then 35 μL of the resulting lysate is transferred to a 384-well plate, where each well contains 5 μL of the antibody solution (1:100 dilution of anti-SMN d2 and anti-SMN kryptate in SMN reconstitution buffer). The plate is centrifuged for 1 minute to bring the solution to the bottom of the wells, then incubated overnight at room temperature. Fluorescence for each well of the plate at 665 nm and 620 nm is measured on an EnVision multilabel plate reader (Perkin-Elmer).
# The normalized fluorescence signal is calculated for each sample, Blank and vehicle control well by dividing the signal at 665 nm by the signal at 620 nm. Normalizing the signal accounts for possible fluorescence quenching due to the matrix effect of the lysate. The ΔF value (a measurement of Smn protein abundance) for each sample well is calculated by subtracting the normalized average fluorescence for the Blank control wells from the normalized fluorescence for each sample well and then dividing this difference by the normalized average fluorescence for the Blank control wells. The resulting ΔF value for each sample well represents the Smn protein abundance from test compound-treated samples. The ΔF value for each sample well is divided by the ΔF value for the vehicle control wells to calculate the fold increase in Smn protein abundance relative to the vehicle control.
# An EC1.5x for Smn protein expression between >3 μM and ≤10 μM is indicated by one star (*), an EC1.5x between >1 and ≤3 μM is indicated by two stars (**), an EC1.5x between >0.3 μM and ≤1 μM is indicated by three stars (***) and an EC1.5x≤0.3 μM is indicated by four stars (****).
SMILES,EC (1.5-fold) [1] [µM],maximum fold (Fold) increase of Smn protein (Smn protein),EC1.5x for production of full length SMN2 mRNA [1]
"CC(C)(C)OC(=O)N[C@H]1CCN(c2ccc3cc(-c4cn5cc(Cl)ccc5n4)c(=O)oc3c2)C1 [Compound 106, tert-butyl {(3S)-1-[3-(6-chloroimidazo[1,2-a]pyridin-2-yl)-2-oxo-2H-chromen-7-yl]pyrrolidin-3-yl}carbamate]",3 to 30,* (maximum fold increase of ≤1.2),–
"O=c1oc2cc(N3CCNCC3)ccc2cc1-c1nc2ncccc2o1 [Compound 110, 3-([1,3]oxazolo[4,5-b]pyridin-2-yl)-7-(piperazin-1-yl)-2H-chromen-2-one hydrochloride]",3 to 30,** (fold increase between >1.2 and ≤1.35),–
"CN1CCN(c2ccc3cc(-c4nc5ncccc5o4)c(=O)oc3c2)CC1 [Compound 111, 7-(4-methylpiperazin-1-yl)-3-([1,3]oxazolo[4,5-b]pyridin-2-yl)-2H-chromen-2-one]",3 to 30,** (fold increase between >1.2 and ≤1.35),–
"O=c1oc2cc(N3CCNCC3)ccc2cc1-c1cn2ccc(C(F)(F)F)cc2n1 [Compound 114, 7-(piperazin-1-yl)-3-[7-(trifluoromethyl)imidazo[1,2-a]pyridin-2-yl]-2H-chromen-2-one]",< 0.1,** (fold increase between >1.2 and ≤1.35),–
"O=c1oc2cc(N3C[C@@H]4C[C@H]3CN4)ccc2cc1-c1cn2cccnc2n1 [Compound 129, 7-[(1S,4S)-2,5-diazabicyclo[2.2.1]hept-2-yl]-3-(imidazo[1,2a]pyrimidin-2-yl)-2H-chromen-2-one hydrochloride (1:3)]",0.3 to 1,** (fold increase between >1.2 and ≤1.35),–
"C[C@@H]1CN(c2ccc3cc(-c4cn5ccccc5n4)c(=O)oc3c2)C[C@H](C)N1C [Compound 140, 3-(imidazo[1,2-a]pyridin-2-yl)-7-[(3R,5S)-3,4,5-trimethylpiperazin-1-yl]-2H-chromen-2-one]",0.3 to 1,** (fold increase between >1.2 and ≤1.35),–
"Cc1csc2nc(-c3cc4ccc(N5CCNCC5)cc4oc3=O)cn12.Cl.Cl.Cl [Compound 141, 3-(3-methylimidazo[2,1-b][1,3]thiazol-6-yl)-7-(piperazin-1-yl)-2H-chromen-2-one hydrochloride (1:3)]",–,* (maximum fold increase of ≤1.2),** (between >1 μM and ≤3 μM)
"Cc1cccn2cc(-c3cc4ccc(N5C[C@H](C)NC[C@H]5C)cc4oc3=O)nc12 [Compound 166, 7-[(2R,5S)-2,5-dimethylpiperazin-1-yl]-3-(8-methylimidazo[1,2-a]pyridin-2-yl)-2H-chromen-2-one]",1 to 3,** (fold increase between >1.2 and ≤1.35),–
"CCCN1CCN(c2ccc3cc(-c4cc5ccccn5n4)c(=O)oc3c2)CC1 [Compound 195, 7-(4-propylpiperazin-1-yl)-3-(pyrazolo[1,5-a]pyridin-2-yl)-2H-chromen-2-one]",1 to 3,* (maximum fold increase of ≤1.2),–
"Cc1ccn2cc(-c3cc4ccc(N5CCN(C)CC5)cc4oc3=O)nc2n1 [Compound 224, 3-(7-methylimidazo[1,2-a]pyrimidin-2-yl)-7-(4-methylpiperazin-1-yl)-2H-chromen-2-one]",0.3 to 1,* (maximum fold increase of ≤1.2),–
"Cl.O=c1oc2cc(N3CCNCC3)ccc2cc1-c1ccnc(C2CC2)n1 [Compound 278, 3-(2-cyclopropylpyrimidin-4-yl)-7-(piperazin-1-yl)-2H-chromen-2-one hydrochloride]",0.3 to 1,* (maximum fold increase of ≤1.2),–
"CC(C)c1nccc(-c2cc3ccc(N4CCNCC4)cc3oc2=O)n1.Cl [Compound 279, 7-(piperazin-1-yl)-3-[2-(propan-2-yl)pyrimidin-4-yl]-2H-chromen-2-one hydrochloride]",1 to 3,* (maximum fold increase of ≤1.2),–
"Cc1nccc(-c2cc3ccc(N4CCN(C)CC4)cc3oc2=O)n1 [Compound 297, 7-(4-methylpiperazin-1-yl)-3-(2-methylpyrimidin-4-yl)-2H-chromen-2-one]",3 to 30,* (maximum fold increase of ≤1.2),–
"CN1CCN(c2ccc3cc(-c4ccnc(C5CC5)n4)c(=O)oc3c2)CC1 [Compound 298, 3-(2-cyclopropylpyrimidin-4-yl)-7-(4-methylpiperazin-1-yl)-2H-chromen-2-one]",1 to 3,* (maximum fold increase of ≤1.2),–
"COc1ccc(-c2cc3ccc(N4CCN(C)CC4)cc3oc2=O)cc1OC [Compound 317, 3-(3,4-dimethoxyphenyl)-7-(4-methylpiperazin-1-yl)-2H-chromen-2-one]",3 to 30,* (maximum fold increase of ≤1.2),–
"Cc1ccn2cc(-c3cc4ccc(O[C@@H]5CCNC5)cc4oc3=O)nc2c1 [Compound 323, 3-(7-methylimidazo[1,2-a]pyridin-2-yl)-7-[(3R)-pyirolidin-3-yloxy]-2H-chromen-2-one hydrochloride (1:2)]",0.3 to 1,** (fold increase between >1.2 and ≤1.35),–
"CN1CCN(c2cc(F)c3cc(-c4cn5cccnc5n4)c(=O)oc3c2)CC1 [Compound 351, 5-fluoro-3-(imidazo[1,2-a]pyrimidin-2-yl)-7-(4-methylpiperazin-1-yl)-2H-chromen-2-one]",0.3 to 1,* (maximum fold increase of ≤1.2),–
"CC(=O)O.Cc1ccn2cc(-c3cc4ccc(N(C)C5CCN(Cc6ccccc6)C5)cc4oc3=O)nc2n1 (stereo not drawn) [Compound 377, 7-[(1-benzylpyrrolidin-3-yl)(methyl)amino]-3-(7-methylimidazo[1,2-a]pyrimidin-2-yl)-2H-chromen-2-one acetate]",0.3 to 1,* (maximum fold increase of ≤1.2),–
